# Measured values taken from US20250188069A1, “COMPOUNDS AND METHODS FOR DEGRADING CASEIN KINASE 1 ALPHA” (PIN THERAPEUTICS, INC., priority 2022, published 2025).
# Where a name gives a salt, the structure may show the parent alone. Read-outs that look alike come from different tables or passages of the source.
# Legend:
# Type in all cases: cell-based
# MV-4-11 cells = experiment: AML cell viability assay (RealTime-Glo); conditions: Homo sapiens, MV4-11, IC50 class, MV-4-11 cells, read-out: Cell viability classification
# CK1α [1] = biological target: T1, CK1α (Homo sapiens, UniProt P48729+Q96SW2); experiment: CK1α degradation, Jess assay in MV-4-11 cells; design: CK1α levels were determined in MV-4-11 cells using Jess (Protein Simple); host or cells: MV-4-11; dose or concentration left out as unconfirmed; conditions: MV4-11, % reduction of CK1α compared to DMSO, MV-4-11 cells for 16 hours, normalized to β-actin, read-out: CK1α degradation classification
# T1 sequence (P48729 whole entry): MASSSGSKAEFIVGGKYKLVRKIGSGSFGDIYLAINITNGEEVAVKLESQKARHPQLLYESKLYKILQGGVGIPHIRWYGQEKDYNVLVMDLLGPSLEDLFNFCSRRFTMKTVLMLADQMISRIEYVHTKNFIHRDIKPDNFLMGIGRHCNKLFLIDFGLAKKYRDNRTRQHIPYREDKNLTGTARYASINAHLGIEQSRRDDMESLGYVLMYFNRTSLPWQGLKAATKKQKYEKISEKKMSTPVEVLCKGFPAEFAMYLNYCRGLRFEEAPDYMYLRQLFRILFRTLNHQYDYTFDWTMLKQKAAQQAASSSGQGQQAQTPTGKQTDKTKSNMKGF
# T1 sequence (Q96SW2 whole entry): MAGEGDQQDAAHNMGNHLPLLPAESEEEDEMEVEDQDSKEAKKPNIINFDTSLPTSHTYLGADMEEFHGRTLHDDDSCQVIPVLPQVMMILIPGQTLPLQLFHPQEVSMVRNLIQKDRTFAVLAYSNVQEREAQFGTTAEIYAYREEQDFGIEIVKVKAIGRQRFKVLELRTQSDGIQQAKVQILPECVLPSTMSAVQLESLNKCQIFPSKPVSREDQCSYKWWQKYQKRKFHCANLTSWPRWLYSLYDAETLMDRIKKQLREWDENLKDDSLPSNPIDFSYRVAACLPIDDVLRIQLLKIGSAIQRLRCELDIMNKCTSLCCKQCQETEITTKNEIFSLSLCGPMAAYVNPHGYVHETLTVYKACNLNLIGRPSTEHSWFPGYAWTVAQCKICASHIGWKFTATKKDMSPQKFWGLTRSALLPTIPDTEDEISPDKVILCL
# T1 sequence (Q16531 whole entry partner): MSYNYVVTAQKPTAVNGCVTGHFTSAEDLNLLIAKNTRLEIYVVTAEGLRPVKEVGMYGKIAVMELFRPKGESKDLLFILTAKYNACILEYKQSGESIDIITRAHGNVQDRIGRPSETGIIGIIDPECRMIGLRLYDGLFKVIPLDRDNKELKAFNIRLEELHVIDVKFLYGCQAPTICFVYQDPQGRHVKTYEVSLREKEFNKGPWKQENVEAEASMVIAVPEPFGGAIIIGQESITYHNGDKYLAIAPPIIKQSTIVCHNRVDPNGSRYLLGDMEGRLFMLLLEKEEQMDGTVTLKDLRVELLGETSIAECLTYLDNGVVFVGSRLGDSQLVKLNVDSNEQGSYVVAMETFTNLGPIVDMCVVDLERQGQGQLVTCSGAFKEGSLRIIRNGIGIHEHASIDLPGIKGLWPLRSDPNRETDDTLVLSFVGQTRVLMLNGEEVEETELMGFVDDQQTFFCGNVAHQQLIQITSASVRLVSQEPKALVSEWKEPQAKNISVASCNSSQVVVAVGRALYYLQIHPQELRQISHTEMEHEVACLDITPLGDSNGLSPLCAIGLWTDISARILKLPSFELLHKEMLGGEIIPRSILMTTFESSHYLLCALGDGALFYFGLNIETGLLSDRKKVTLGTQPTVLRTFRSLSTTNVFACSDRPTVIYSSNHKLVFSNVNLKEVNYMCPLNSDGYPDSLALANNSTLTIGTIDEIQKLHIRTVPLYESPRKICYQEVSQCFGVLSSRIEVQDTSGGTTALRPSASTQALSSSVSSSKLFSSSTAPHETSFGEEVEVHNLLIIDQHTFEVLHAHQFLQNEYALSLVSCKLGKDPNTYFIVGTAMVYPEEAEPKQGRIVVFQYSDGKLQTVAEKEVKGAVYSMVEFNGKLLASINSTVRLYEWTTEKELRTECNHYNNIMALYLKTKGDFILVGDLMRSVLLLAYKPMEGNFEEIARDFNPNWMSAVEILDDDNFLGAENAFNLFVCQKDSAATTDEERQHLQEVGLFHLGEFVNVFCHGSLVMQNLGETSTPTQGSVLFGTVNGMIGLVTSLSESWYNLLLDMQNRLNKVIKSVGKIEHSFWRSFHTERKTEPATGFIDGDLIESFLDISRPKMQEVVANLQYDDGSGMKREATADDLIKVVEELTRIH
# Method: (§1) MM.1S and NCCIT cells were obtained from ATCC and grown in RPMI-1640 supplemented with 10% FBS. MV-4-11 cells were obtained from ATCC and grown in IMDM supplemented with 10% FBS. The cells were maintained at 37° C. under 5% CO2.
# Compounds of the present disclosure was added to cells (final DMSO concentration of 0.1%) and incubated for 16 hours. CK1α levels were determined in MV-4-11 cells using Jess (Protein Simple). Briefly, whole cell lysates were prepared in lysis buffer (1×RIPA buffer [Thermo, 89900], 2 mM MgCl2 [Sigma, M1028], 0.05% Benzonase [Sigma, E1014], 1× Pierce protease inhibitor tablets EDTA-free [Thermo, A32965]). 6-20 μg of the lysates were analyzed using Jess with antibodies against CK1α (Abcam, ab108296) and β-actin (R&D Systems, MAB8929). Protein levels were normalized to β-actin levels. DC50 values were obtained using four-parameter non-linear regressions using Prism (GraphPad).
# The efficacy of CK1α degradation of a part of compounds of the present disclosure was determined by treating MV-4-11 cells at […] (final DMSO concentration of 0.1%) for 16 hours. CK1α levels were determined using Jess and normalized to β-actin levels. The compounds are classified based on amount of CK1α degradation (% reduction of CK1α compared to DMSO) as follows. • A: Degradation is greater than or equal to 75%; • B: Degradation is less than […] & greater than or equal to 50%; • C: Degradation is less than […]; • ND: not determined.
# CK1α [2] = biological target: T1, CK1α; experiment: CK1α degradation, Western blot in MV-4-11 cells; design: CK1α levels were determined in MV-4-11 cells using Jess (Protein Simple); host or cells: MV-4-11; conditions: % reduction of CK1α compared to DMSO, MV4-11 cells at 1 μM for 4 hours, read-out: CK1α degradation classification
# Method: as §1
# Compounds of the present disclosure was added to cells (final DMSO concentration of 0.1%) and incubated for 4 hours. CK1α levels were determined in MV-4-11 cells using Western blot analysis. Whole cell lysates were prepared in lysis buffer (1×RIPA buffer [Thermo, 89900], 2 mM MgCl2 [Sigma, M1028], 0.05% Benzonase [Sigma, E1014], 1× Pierce protease inhibitor tablets EDTA-free [Thermo, A32965]). […] of the lysates were analyzed using Western blot with antibodies against CK1α (Abcam, ab108296) and β-actin (R&D Systems, MAB8929).
# The efficacy of CK1α degradation of other part of compounds of the present disclosure was determined by treating MV4-11 cells at 1 μM (Final DMSO concentration of 0.1%) for 4 hours. Protein levels relative to DMSO are calculated for CK1α. The compounds are classified based on the amount of CK1α degradation (% reduction of CK1α compared to DMSO) as follows. • A: Degradation is greater than or equal to 75%; • B: Degradation is less than 75% & greater than or equal to 50%; • C: Degradation is less than […]; • ND: not determined.
# [3] = RealTime-Glo after 44 hrs of treatment (TABLE 1)
# [4] = RealTime-Glo after 44 hrs of treatment (TABLE 4)
IC50 (MV-4-11 cells; [3]) [nM],Dmax (CK1α [1]) [%],IC50 (MV-4-11 cells; [4]) [nM],Dmax at 1 µM (CK1α [2]) [%],SMILES
< 100,> 75,,,"CCCCCN(c1cccc2c1CN(C1CCC(=O)NC1=O)C2=O)[C@H]1CC[C@@H](N)CC1 (stereo partly drawn) [Compound 87, 3-(4-(((1S,4S)-4-aminocyclohexyl)(pentyl)amino)-1-oxoisoindolin-2-yl)piperidine-2,6-dione hydrochloride]"
< 100,> 75,,,"CCCCCN(c1cccc2c1CN(C1CCC(=O)NC1=O)C2=O)[C@H]1CC[C@H](N)CC1 (some centres unmarked) [Compound 88, 3-(4-(((1r,4r)-4-aminocyclohexyl)(pentyl)amino)-1-oxoisoindolin-2-yl)piperidine-2,6-dione, HCl]"
< 100,> 75,,,"CCCCCN(c1cccc2c1CN(C1CCC(=O)NC1=O)C2=O)[C@H]1CC[C@@H](CN)CC1 (stereo partly drawn) [Compound 89, 3-(4-(((1S,4S)-4-(aminomethyl)cyclohexyl)(pentyl)amino)-1-oxoisoindolin-2-yl)piperidine-2,6-dione hydrochloride]"
< 100,> 75,,,"CCCCCN(c1cccc2c1CN(C1CCC(=O)NC1=O)C2=O)[C@H]1CC[C@H](CN)CC1 (stereo partly drawn) [Compound 90, 3-(4-(((1R,4R)-4-(aminomethyl)cyclohexyl)(pentyl)amino)-1-oxoisoindolin-2-yl)piperidine-2,6-dione hydrochloride]"
< 100,> 75,,,"NC[C@H]1CC[C@@H](N(CCC2CC2)c2cccc3c2CN(C2CCC(=O)NC2=O)C3=O)CC1 (some centres unmarked) [Compound 358, 3-(4-(((1s,4s)-4-(aminomethyl)cyclohexyl)(2-cyclopropylethyl)amino)-1-oxoisoindolin-2-yl)piperidine-2,6-dione]"
,,< 100,> 75,"O=C1CCC(N2Cc3c(cccc3N(CCC3CC3)[C@H]3CC[C@H](NCC4(F)CC4)CC3)C2=O)C(=O)N1 (some centres unmarked) [Compound 612, 3-{4-[(2-cyclopropylethyl)[(1r,4r)-4-{[(1-fluorocyclopropyl)methyl]amino}cyclohexyl]amino]-1-oxo-3H-isoindol-2-yl}piperidine-2,6-dione]"
,,< 100,> 75,"O=C1CCC(N2Cc3c(cccc3N(CCC3CC3)[C@H]3CC[C@H](NCC4(F)CCC4)CC3)C2=O)C(=O)N1 (some centres unmarked) [Compound 613, 3-{4-[(2-cyclopropylethyl)[(1r,4r)-4-{[(1-fluorocyclobutyl)methyl]amino}cyclohexyl]amino]-1-oxo-3H-isoindol-2-yl}piperidine-2,6-dione]"
,,< 100,> 75,"CS(=O)(=O)C1(CN[C@H]2CC[C@H](N(CCC3CC3)c3cccc4c3CN(C3CCC(=O)NC3=O)C4=O)CC2)CC1 (some centres unmarked) [Compound 615, 3-{4-[(2-cyclopropylethyl)[(1r,4r)-4-{[(1-methanesulfonylcyclopropyl)methyl]amino}cyclohexyl]amino]-1-oxo-3H-isoindol-2-yl}piperidine-2,6-dione; trifluoroacetate]"
,,< 100,> 75,"O=C1CCC(N2Cc3c(cccc3N(CCC3CC3)[C@H]3CC[C@H](NCC4(F)COC4)CC3)C2=O)C(=O)N1 (some centres unmarked) [Compound 616, 3-{4-[(2-cyclopropylethyl)[(1r,4r)-4-{[(3-fluorooxetan-3-yl)methyl]amino}cyclohexyl]amino]-1-oxo-3H-isoindol-2-yl}piperidine-2,6-dione; trifluoro acetate]"
,,100 to 1000,50 to 75,"C[C@]1(N)CC[C@H](N(CCC2CC2)c2cccc3c2CN(C2CCC(=O)NC2=O)C3=O)CC1 (some centres unmarked) [Compound 634, 3-{4-[(2-cyclopropylethyl)[(1r,4r)-4-amino-4-methylcyclohexyl]amino]-1-oxo-3H-isoindol-2-yl}piperidine-2,6-dione]"
,,< 100,> 75,"C[C@]1(N)CC[C@@H](N(CCC2CC2)c2cccc3c2CN(C2CCC(=O)NC2=O)C3=O)CC1 (some centres unmarked) [Compound 635, 3-{4-[(2-cyclopropylethyl)[(1s,4s)-4-amino-4-methylcyclohexyl]amino]-1-oxo-3H-isoindol-2-yl}piperidine-2,6-dione]"

# Further lines, the compound ahead of its results:
SMILES,IC50 (MV-4-11 cells; [3]) [nM],Dmax (CK1α [1]) [%],IC50 (MV-4-11 cells; [4]) [nM],Dmax at 1 µM (CK1α [2]) [%]
"CCCCCN(CCCCNC)c1cccc2c1CN(C1CCC(=O)NC1=O)C2=O (centres unmarked) [Compound 80, 3-(4-((4-(methylamino)butyl)(pentyl)amino)-1-oxoisoindolin-2-yl)piperidine-2,6-dione.Hydrochloride]",< 100,> 75,,
"CCCCCN(CCCCNC(C)=O)c1cccc2c1CN(C1CCC(=O)NC1=O)C2=O (centres unmarked) [Compound 82, N-(4-((2-(2,6-dioxopiperidin-3-yl)-1-oxoisoindolin-4-yl)(pentyl)amino)butyl)acetamide]",< 100,50 to 7500,,
"CCCCN(CC#CCN)c1cccc2c1CN(C1CCC(=O)NC1=O)C2=O (centres unmarked) [Compound 115, 3-(4-((4-aminobut-2-yn-1-yl)(butyl)amino)-1-oxoisoindolin-2-yl)piperidine-2,6-dione]",> 1000,50 to 7500,,
"CC#CCN(CCCCN)c1cccc2c1CN(C1CCC(=O)NC1=O)C2=O (centres unmarked) [Compound 116, 3-(4-((4-aminobutyl)(but-2-yn-1-yl)amino)-1-oxoisoindolin-2-yl)piperidine-2,6-dione]",< 100,> 75,,
"N[C@H]1CC[C@H](N(CCCc2ccccc2)c2cccc3c2CN(C2CCC(=O)NC2=O)C3=O)CC1 (some centres unmarked) [Compound 251, 3-(4-(((1r,4r)-4-aminocyclohexyl)(3-phenylpropyl)amino)-1-oxoisoindolin-2-yl)piperidine-2,6-dione hydrochloride]",< 100,> 75,,
"CCCCCN(c1cccc2c1CN(C1CCC(=O)NC1=O)C2=O)[C@@H]1CC[C@@H](N)C1 (stereo partly drawn) [Compound 323, 3-(4-(((1R,3R)-3-aminocyclopentyl)(pentyl)amino)-1-oxoisoindolin-2-yl)piperidine-2,6-dione]",< 100,> 75,,
"CCCCCN(c1cccc2c1CN(C1CCC(=O)NC1=O)C2=O)[C@@H]1CC[C@H](N)C1 (stereo partly drawn) [Compound 324, 3-(4-(((1R,3S)-3-aminocyclopentyl)(pentyl)amino)-1-oxoisoindolin-2-yl)piperidine-2,6-dione]",< 100,> 75,,
"NC[C@H]1CC[C@@H](N(CCCC2CCOCC2)c2cccc3c2CN(C2CCC(=O)NC2=O)C3=O)CC1 (some centres unmarked) [Compound 333, 3-(4-(((1s,4s)-4-(aminomethyl)cyclohexyl)(3-(tetrahydro-2H-pyran-4-yl)propyl)amino)-1-oxoisoindolin-2-yl)piperidine-2,6-dione]",< 100,> 75,,
"O=C1CCC(N2Cc3c(cccc3N(CCC3CC3)[C@H]3C[C@@H](c4nnc[nH]4)C3)C2=O)C(=O)N1 (some centres unmarked) [Compound 603, 3-{4-[(2-cyclopropylethyl)[(1s,3s)-3-(4H-1,2,4-triazol-3-yl)cyclobutyl]amino]-1-oxo-3H-isoindol-2-yl}piperidine-2,6-dione; formate]",,,< 100,> 75
"O=C1CCC(N2Cc3c(cccc3N(CCC3CC3)[C@H]3C[C@H](c4nnc[nH]4)C3)C2=O)C(=O)N1 (some centres unmarked) [Compound 604, 3-{4-[(2-cyclopropylethyl)[(1s,3s)-3-(4H-1,2,4-triazol-3-yl)cyclobutyl]amino]-1-oxo-3H-isoindol-2-yl}piperidine-2,6-dione; formate]",,,< 100,> 75
"O=C1CCC(N2Cc3c(cccc3N(CCCCC(F)(F)F)[C@H]3CC[C@H](NCCC(F)(F)F)CC3)C2=O)C(=O)N1 (some centres unmarked) [Compound 636, 3-(1-oxo-4-{[(1r,4r)-4-[(3,3,3-trifluoropropyl)amino]cyclohexyl](5,5,5-trifluoropentyl)amino}-3H-isoindol-2-yl)piperidine-2,6-dione; trifluoroacetate]",,,100 to 1000,> 75
